Each structure is given as a SMILES string.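 Assay format: 96-well plates, 48-hour exposure. Here, GI50 denotes the concentration required for 50% inhibition of growth. TGI: total growth inhibition.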

These results are taken from PubChem BioAssay (NCI).

Among the test systems are NCI-H460 lung; SK-MEL-5 melanoma; HL-60(TB) leukemia; IGROV1 ovarian; UACC-62 melanoma; HT29 colon; HCT-116 colon; OVCAR-3 ovarian; A498 renal; SK-MEL-2 melanoma.
Holding throughout (test): growth of human tumour cells (NCI), 48 h

Take `COc1ccc(NC(=O)n2nc(N)c3ccccc32)cc1OC`: the GI50 in the experiment on NCI-H460 lung is 34.5 µM; in the experiment with SK-MEL-5 melanoma, 27.9 µM; with HL-60(TB) leukemia, 27.9 µM; in the experiment with IGROV1 ovarian, 18.1 µM; in the experiment with UACC-62 melanoma, 52.3 µM; in the experiment on HT29 colon it was 48.2 µM. Also, the GI50 in the experiment with HCT-116 colon is 43.5 µM; in the experiment on OVCAR-3 ovarian it was 92 µM; with A498 renal, 30.3 µM; in the experiment with SK-MEL-2 melanoma, 37.2 µM. The TGI was greater than 100 µM in the experiment on NCI-H460 lung; greater than 100 µM in the experiment on SK-MEL-5 melanoma; greater than 100 µM in the experiment on HL-60(TB) leukemia; 84 µM in the experiment with IGROV1 ovarian; greater than 100 µM in the experiment with UACC-62 melanoma; greater than 100 µM with HT29 colon. For the same compound, the TGI was greater than 100 µM in the experiment on HCT-116 colon, greater than 100 µM in the experiment on OVCAR-3 ovarian, 85.4 µM with A498 renal and greater than 100 µM in the experiment with SK-MEL-2 melanoma.
With `COc1ccc(C(=O)c2ccc(OC)c(OC)c2OC)cc1`, the GI50 is 1.99 µM in the experiment on NCI-H460 lung; 1.68 µM in the experiment on SK-MEL-5 melanoma; 0.464 µM in the experiment with HL-60(TB) leukemia; 1.76 µM with IGROV1 ovarian; 1.47 µM with UACC-62 melanoma; 0.465 µM in the experiment on HT29 colon. In addition, the GI50 is 2.19 µM with HCT-116 colon, 0.773 µM in the experiment on OVCAR-3 ovarian, 1.08 µM in the experiment on A498 renal and 0.402 µM with SK-MEL-2 melanoma. In addition, the TGI in the experiment on NCI-H460 lung is 11.6 µM; in the experiment on SK-MEL-5 melanoma it was 37.2 µM; in the experiment with HL-60(TB) leukemia it was greater than 100 µM; in the experiment with IGROV1 ovarian it was greater than 100 µM; with UACC-62 melanoma it was greater than 100 µM; with HT29 colon, 33.5 µM. In addition, the TGI is greater than 100 µM in the experiment with HCT-116 colon, 2.86 µM in the experiment on OVCAR-3 ovarian, 9.39 µM in the experiment on A498 renal and 3.33 µM in the experiment with SK-MEL-2 melanoma.
In the case of `CSC(C1c2ccccc2N(C)C2=NC(=O)N(C)C(=O)C21Cl)S(=O)(=O)c1ccc(C)cc1` (stereo not given), the TGI in the experiment on NCI-H460 lung was greater than 100 µM; in the experiment with SK-MEL-5 melanoma, greater than 100 µM; in the experiment with HL-60(TB) leukemia, 39.7 µM; in the experiment on IGROV1 ovarian, greater than 100 µM; with UACC-62 melanoma, greater than 100 µM; in the experiment on HT29 colon, greater than 100 µM. For the same compound, the TGI with HCT-116 colon is greater than 100 µM; with OVCAR-3 ovarian, 43.3 µM; in the experiment on A498 renal it was greater than 100 µM; in the experiment on SK-MEL-2 melanoma, greater than 100 µM.
For the compound `COc1cc2c(cc1OCCOS(C)(=O)=O)N=C[C@@H]1CCCN1C2=O`, the TGI is greater than 100 µM with NCI-H460 lung; 42.2 µM in the experiment on SK-MEL-5 melanoma; 55.9 µM in the experiment on HL-60(TB) leukemia; 99.1 µM in the experiment on IGROV1 ovarian; 42.5 µM with UACC-62 melanoma; greater than 100 µM with HT29 colon. The TGI was 36.5 µM with HCT-116 colon, 31.3 µM in the experiment with OVCAR-3 ovarian, 48.7 µM with A498 renal and greater than 100 µM in the experiment on SK-MEL-2 melanoma. Also, the GI50 in the experiment on SK-MEL-5 melanoma was 16.9 µM; in the experiment on UACC-62 melanoma, 19.4 µM; with HCT-116 colon, 18.5 µM; in the experiment on OVCAR-3 ovarian, 16.3 µM; with A498 renal, 17.1 µM.
Turning to `COc1ccccc1-n1c(-c2cc(O)ccc2C)cn2c3c(=O)[nH]c(=O)n(C)c3nc12`, the GI50 with NCI-H460 lung is greater than 100 µM; in the experiment with SK-MEL-5 melanoma, 53.2 µM; in the experiment on HL-60(TB) leukemia, greater than 100 µM; in the experiment with IGROV1 ovarian, 3.52 µM; in the experiment on UACC-62 melanoma it was greater than 100 µM; in the experiment with HT29 colon it was 1.62 µM. Further, the GI50 is 21.1 µM with HCT-116 colon, 4.28 µM in the experiment on OVCAR-3 ovarian, 25 µM in the experiment with A498 renal and greater than 100 µM with SK-MEL-2 melanoma. Further, the TGI in the experiment on NCI-H460 lung is greater than 100 µM; in the experiment on SK-MEL-5 melanoma, greater than 100 µM; in the experiment on HL-60(TB) leukemia, greater than 100 µM; with IGROV1 ovarian, 13.9 µM; in the experiment on UACC-62 melanoma, greater than 100 µM; with HT29 colon, 8.12 µM. Further, the TGI in the experiment with HCT-116 colon, in the experiment on OVCAR-3 ovarian, in the experiment on A498 renal and in the experiment on SK-MEL-2 melanoma was greater than 100 µM each time.
As for `CCOC(=O)C(=O)Nc1c(F)cc(F)cc1Br`, the TGI in the experiment on NCI-H460 lung, in the experiment with SK-MEL-5 melanoma, in the experiment with HL-60(TB) leukemia, in the experiment on IGROV1 ovarian, in the experiment with UACC-62 melanoma and in the experiment on HT29 colon was greater than 100 µM in each case. Moreover, the TGI in the experiment on HCT-116 colon, in the experiment with OVCAR-3 ovarian, in the experiment on A498 renal and with SK-MEL-2 melanoma was greater than 100 µM in each case.
On to `C1CCN(CCC2CCCCN2)CC1` (stereo not given), for which the TGI in the experiment with NCI-H460 lung, in the experiment with SK-MEL-5 melanoma, in the experiment on HL-60(TB) leukemia, in the experiment on IGROV1 ovarian, in the experiment with UACC-62 melanoma and in the experiment on HT29 colon was greater than 100 µM each time. Besides, the TGI with HCT-116 colon, with OVCAR-3 ovarian, in the experiment with A498 renal and with SK-MEL-2 melanoma was greater than 100 µM throughout.
`CN(C)c1ccc(/C=C(/NC(=O)c2ccccc2)c2nc3ccc(Cl)cc3[nH]2)cc1`: the TGI in the experiment on NCI-H460 lung was greater than 100 µM; with SK-MEL-5 melanoma it was 39.3 µM; with HL-60(TB) leukemia, 66.9 µM; in the experiment on IGROV1 ovarian, greater than 100 µM; in the experiment on UACC-62 melanoma, 97.6 µM; in the experiment on HT29 colon, 78.5 µM. Also, the TGI with HCT-116 colon was greater than 100 µM; in the experiment with OVCAR-3 ovarian, greater than 9.31 µM; in the experiment with A498 renal, greater than 100 µM; in the experiment on SK-MEL-2 melanoma, 99.4 µM.
Consider `CCn1c2c(n(CC)c1=S)-c1c(n(CC)c(=S)n1CC)SSSS2`, for which the TGI is greater than 77.9 µM in the experiment with NCI-H460 lung; 43.1 µM with SK-MEL-5 melanoma; 8.76 µM with HL-60(TB) leukemia; 34.3 µM in the experiment with IGROV1 ovarian; 18.6 µM in the experiment on UACC-62 melanoma; 29.2 µM in the experiment with HT29 colon. Moreover, the TGI with HCT-116 colon is 11 µM; in the experiment on OVCAR-3 ovarian, 17.9 µM; with A498 renal, 63.8 µM; in the experiment with SK-MEL-2 melanoma it was 31.2 µM.
As for `CCC(C)n1cc(C)c2c(C(=O)NCc3c(C)cc(C)[nH]c3=O)cc(Br)cc21` (stereo not given), the GI50 is 40.3 µM with NCI-H460 lung; 13.2 µM with SK-MEL-5 melanoma; 24.3 µM in the experiment with HL-60(TB) leukemia; greater than 100 µM with IGROV1 ovarian; 29.4 µM with UACC-62 melanoma; 41.5 µM in the experiment on HT29 colon. Further, the GI50 in the experiment on HCT-116 colon was 48 µM; in the experiment on OVCAR-3 ovarian, 44.5 µM; with A498 renal, 38.4 µM; with SK-MEL-2 melanoma it was 35.9 µM. Further, the TGI is greater than 100 µM with NCI-H460 lung; 29.1 µM with SK-MEL-5 melanoma; 58.4 µM in the experiment on HL-60(TB) leukemia; greater than 100 µM with IGROV1 ovarian; greater than 100 µM in the experiment on UACC-62 melanoma; greater than 100 µM with HT29 colon. The TGI with HCT-116 colon, with OVCAR-3 ovarian, in the experiment on A498 renal and in the experiment with SK-MEL-2 melanoma was greater than 100 µM each time.
Consider `C[C@]12CCC[C@H](Cl)C1(O)C[C@H](C(=O)O)CC2` (stereo not given in full), for which the TGI in the experiment with NCI-H460 lung, in the experiment with SK-MEL-5 melanoma, with HL-60(TB) leukemia, with IGROV1 ovarian, in the experiment on UACC-62 melanoma and in the experiment with HT29 colon was greater than 100 µM in each case. Also, the TGI in the experiment on HCT-116 colon, in the experiment on OVCAR-3 ovarian, with A498 renal and with SK-MEL-2 melanoma was greater than 100 µM throughout.
As to `C=C(C)[C@@H]1CC[C@]2(C)[C@H](C(=O)C=C3[C@@H]4C[C@](C)(C(=O)N5CCN(C)CC5)CC[C@]4(C)CC[C@]32C)[C@@]1(C)CCC#N`, the GI50 in the experiment with NCI-H460 lung is 6.48 µM; in the experiment on SK-MEL-5 melanoma, 7.3 µM; in the experiment with HL-60(TB) leukemia, 4.19 µM; with IGROV1 ovarian, 6.58 µM; in the experiment on UACC-62 melanoma it was 6.03 µM; with HT29 colon, 2.38 µM. Besides, the GI50 in the experiment on HCT-116 colon is 3.03 µM; with OVCAR-3 ovarian, 6.33 µM; in the experiment on A498 renal it was 7.77 µM; in the experiment with SK-MEL-2 melanoma, 7.57 µM. The TGI amounted to 13.9 µM in the experiment on NCI-H460 lung; 13.9 µM in the experiment on SK-MEL-5 melanoma; 11.8 µM in the experiment with HL-60(TB) leukemia; 14.6 µM in the experiment with IGROV1 ovarian; 12.5 µM in the experiment with UACC-62 melanoma; 8.49 µM in the experiment on HT29 colon. The TGI in the experiment on HCT-116 colon was determined as 9.33 µM; in the experiment with OVCAR-3 ovarian it was 13.2 µM; in the experiment on A498 renal, 14.9 µM; with SK-MEL-2 melanoma, 14.8 µM.
Regarding `CCCCCCCCCCCCCCCCCC1=NCCN1CS(=O)(=O)O`, the GI50 with NCI-H460 lung is 3.24 µM; in the experiment with SK-MEL-5 melanoma, 18.8 µM; with HL-60(TB) leukemia, 14.3 µM; in the experiment with IGROV1 ovarian it was 3.9 µM; in the experiment with UACC-62 melanoma, 16.9 µM; in the experiment on HT29 colon, 4.44 µM. The GI50 is 10.4 µM in the experiment on HCT-116 colon, 15 µM in the experiment on OVCAR-3 ovarian, 14.8 µM in the experiment with A498 renal and 27.7 µM in the experiment on SK-MEL-2 melanoma. For the same compound, the TGI amounted to 8.39 µM with NCI-H460 lung; 40.5 µM with SK-MEL-5 melanoma; 39.9 µM in the experiment on HL-60(TB) leukemia; 14.1 µM in the experiment on IGROV1 ovarian; 35.1 µM in the experiment with UACC-62 melanoma; 19.9 µM in the experiment with HT29 colon. The TGI in the experiment with HCT-116 colon turned out to be 30.3 µM; in the experiment with OVCAR-3 ovarian it was 33.7 µM; in the experiment with A498 renal, 31 µM; with SK-MEL-2 melanoma, 67.4 µM.
